Measured values from US20170348288A1, “DOSING REGIMENS FOR BETA-3 ADRENOCEPTOR AGONISTS AND ANTI-MUSCARINIC AGENTS FOR THE TREATMENT AND PREVENTION OF LOWER URINARY TRACT SYMPTOMS AND OVERACTIVE BLADDER” (VELICEPT THERAPEUTICS, INC., priority 2016, published 2017).

What was measured:
beta-3 adrenoceptor [1] = biological target: T1, beta-3 adrenoceptor (Rattus norvegicus, UniProt P26255); assay: Pilot cumulative concentration response curves to determine EC90 for inhibition of EFS-induced contraction in rat isolated bladder; conditions: rat isolated bladder strips, EFS 15 Hz, CCRC half-log increments; calculated values; read-out: EC90 concentration to inhibit EFS-induced contraction in rat isolated bladder
T1 construct: The bladder longitudinal smooth muscle, with the urothelium still attached were mounted in 25 ml organ baths; from tissue; host or cells: rat urinary bladder (longitudinal smooth muscle with urothelium), male CD rats
Method: Macroscopically normal bladders from Male CD rats (220-250 g) were used. […] Each bladder was cleaned free of surrounding connective tissue and halved longitudinally. The bladder longitudinal smooth muscle, with the urothelium still attached were mounted in 25 ml organ baths containing physiological saline solution (PSS) (composition: 119.0 mM NaCl, 4.7 mM KCl, 1.2 mM MgSO4, 24.9 mM NaHCO3, 1.2 mM KH2PO4, 2.5 mM CaCl2 and 11.1 mM glucose) supplemented with 1 μM prazosin (α1-adrenoceptor antagonist) and 30 nM ICI118551 (β2-adrenoceptor antagonist), aerated with 95% O2/5% CO2 gas mix, warmed and maintained at approximately 37° C. throughout the experiment. Changes in force production were recorded using transducers. […]
EFS parameters and viability check: In initial experiments the parameters for the EFS were assessed by performing a frequency curve to determine a frequency that would give a response that was approximately 80% of the response seen to 80 mM KCl. Optimal EFS parameters were determined to be: 30 Volts, square pulse of 0.1 ms, train of 4 seconds every 120 seconds, 15 Hz. […]
Pilot studies to determine EC90 concentrations of the test compounds were performed. […] From the data obtained in these experiments, EC90 concentrations of the test compounds were determined for use in subsequent experiments. […]

beta-3 adrenoceptor [2] = biological target: T1, beta-3 adrenoceptor; assay: Desensitization and washout: CCRC on EFS-induced contraction of rat bladder strips after pre-incubation with the EC90 concentration and washing with PSS
Method: Macroscopically normal bladders from Male CD rats (220-250 g) were used. […] Each bladder was cleaned free of surrounding connective tissue and halved longitudinally. The bladder longitudinal smooth muscle, with the urothelium still attached were mounted in 25 ml organ baths containing physiological saline solution (PSS) (composition: 119.0 mM NaCl, 4.7 mM KCl, 1.2 mM MgSO4, 24.9 mM NaHCO3, 1.2 mM KH2PO4, 2.5 mM CaCl2 and 11.1 mM glucose) supplemented with 1 μM prazosin (α1-adrenoceptor antagonist) and 30 nM ICI118551 (β2-adrenoceptor antagonist), aerated with 95% O2/5% CO2 gas mix, warmed and maintained at approximately 37° C. throughout the experiment. Changes in force production were recorded using transducers. After mounting, the bladder halves were allowed to equilibrate for at least 30 min before they were set to a stable tension of approximately 1.0 g. The tissue was then allowed to equilibrate over at least a 60 min period with washes every 15 min.
EFS parameters and viability check: In initial experiments the parameters for the EFS were assessed by performing a frequency curve to determine a frequency that would give a response that was approximately 80% of the response seen to 80 mM KCl. Optimal EFS parameters were determined to be: 30 Volts, square pulse of 0.1 ms, train of 4 seconds every 120 seconds, 15 Hz. This frequency was then used to stimulate the tissue for all subsequent experiments. The viability of bladder strips was tested by stimulating the tissue with EFS for minimum of ten min.
The bladder muscle strips were incubated with the EC90 determined for each test compound in the pilot studies, for a period of 1 or 3 hr. Following compound incubation, the tissues were washed with PSS for a period of 1, 3 or 6 hr, with washes approximately every 15 min, to remove the drug. At the end of the final wash period the tissues were stimulated with EFS, and left to equilibrate for at least 30 min. -A CCRC was then performed in each tissue.

[3] = biological target: T2, murine adipocyte beta-3 adrenoceptor (Mus musculus, UniProt P25962); conditions: literature report, cited from earlier work
T2 construct: host or cells: murine adipocytes (no further detail)

[4] = three hr incubation with EC90, one hr of washing
[5] = three hr incubation, low and mid-concentration range

T1 sequence (P26255 whole entry): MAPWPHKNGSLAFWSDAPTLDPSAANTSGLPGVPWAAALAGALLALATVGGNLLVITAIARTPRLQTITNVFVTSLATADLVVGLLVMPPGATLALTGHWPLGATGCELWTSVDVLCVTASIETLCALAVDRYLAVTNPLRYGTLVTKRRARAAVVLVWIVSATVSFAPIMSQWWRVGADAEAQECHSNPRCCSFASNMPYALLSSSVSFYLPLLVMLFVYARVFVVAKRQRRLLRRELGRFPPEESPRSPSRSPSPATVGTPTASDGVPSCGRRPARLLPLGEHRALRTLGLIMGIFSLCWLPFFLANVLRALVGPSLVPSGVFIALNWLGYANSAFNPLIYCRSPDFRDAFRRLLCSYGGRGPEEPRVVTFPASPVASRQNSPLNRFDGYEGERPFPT
T2 sequence (P25962 whole entry): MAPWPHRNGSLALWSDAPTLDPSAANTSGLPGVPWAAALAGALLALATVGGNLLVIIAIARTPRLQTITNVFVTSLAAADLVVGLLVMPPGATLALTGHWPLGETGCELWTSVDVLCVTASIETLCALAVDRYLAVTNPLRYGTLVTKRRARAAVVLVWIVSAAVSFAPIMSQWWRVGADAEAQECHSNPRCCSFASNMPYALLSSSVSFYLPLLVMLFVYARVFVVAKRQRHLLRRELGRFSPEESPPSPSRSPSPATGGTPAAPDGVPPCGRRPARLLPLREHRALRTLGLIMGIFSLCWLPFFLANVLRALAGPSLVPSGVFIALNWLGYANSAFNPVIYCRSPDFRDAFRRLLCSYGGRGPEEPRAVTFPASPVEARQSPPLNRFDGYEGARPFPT

Structure (SMILES)	EC90 (beta-3 adrenoceptor [1]) [µM]	Responses to the agonist (CCRC, reduction of EFS-induced contraction) vs vehicle-incubated tissue (beta-3 adrenoceptor [2]; [4])	Potentiation of EFS-induced contraction from baseline (beta-3 adrenoceptor [2]; [5])	Functional response following prolonged exposure to the beta-3 agonist ([3]; murine adipocytes)	Effect on murine adipocyte beta-3 adrenoceptor [3]	Concentration range in which the EFS-mediated response was potentiated (beta-3 adrenoceptor [2]; following 1 or 3 hr of washout) [nM]	Responses to the agonist (CCRC, reduction of EFS-induced contraction) vs vehicle-incubated tissue (beta-3 adrenoceptor [2]; one hr incubation with EC90, one hr of washing with PSS)	Responses to the agonist (CCRC, reduction of EFS-induced contraction) vs vehicle-incubated tissue (beta-3 adrenoceptor [2]; one hr incubation with EC90, three hr of washing, higher concentrations)	Potentiation of EFS-induced contraction from baseline (beta-3 adrenoceptor [2]; one hr incubation, lower and mid-concentration range)	Responses to the agonist (CCRC, reduction of EFS-induced contraction) vs vehicle-incubated tissue (beta-3 adrenoceptor [2]; three hr incubation with EC90, three hr of washing, highest concentrations)
C[C@H](Cc1ccc2c(c1)OC(C(=O)[O-])(C(=O)[O-])O2)NC[C@H](O)c1cccc(Cl)c1.[Na+].[Na+] [CL-316,243]	0.042	significantly attenuated	not observed	attenuated	down-regulation	–	–	–	–	–
Nc1nc(CC(=O)Nc2ccc(CCNC[C@H](O)c3ccccc3)cc2)cs1 [mirabegron, (R)-2-(2-aminothiazol-4-yl)-N-(4-(2-((2-hydroxy-2-phenylethyl)amino)ethyl)phenyl)acetamide]	15.3	significantly attenuated	marked potentiation of EFS-induced contraction	–	–	10 to 1000	significantly attenuated	significantly attenuated	marked potentiation of EFS-induced contraction	significantly attenuated
